Consider 14 compounds from US20050004134A1, “Thiazole derivative and pharmaceutical use thereof” (priority 2001, published 2005).

By melting point is commonly meant the temperature, or range, at which the solid turns liquid.

`CC(C)n1nc(-c2sc(NC(=O)c3ccccc3Cl)nc2-c2ccccc2)ccc1=O` [Example 46, 2-Chloro-N-[5-(1-isopropyl-6-oxo-1,6-dihydro-3-pyridazinyl)-4-phenyl-1,3-thiazol-2-yl]benzamide] had a melting point of 220 to 221 °C.
For the compound `CC(C)n1nc(-c2sc(NC(=O)CN3CCCCC3)nc2-c2ccccc2)ccc1=O` [Example 132, N-[5-(1 Isopropyl-6-oxo-1,6-dihydro-3-pyridazinyl)-4-phenyl-1,3-thiazol-2-yl]-2-(1-piperidinyl)acetamide], the melting point is 189 to 190 °C.
The same measure for `CC(C)n1nc(-c2sc(NC(=O)C3CC3)nc2-c2ccc(F)cc2)ccc1=O` [Example 57, N-[4-(4-Fluorophenyl)-5-(1-isopropyl-6-oxo-1,6-dihydro-3-pyridazinyl)-1,3-thiazol-2-yl]cyclopropanecarboxamide]: 250 to 252 °C; for `CC(C)n1nc(-c2sc(N(C)C)nc2-c2ccccc2)ccc1=O` [Example 23, 6-[2-(dimethylamino)-4-phenyl-1,3-thiazol-5-yl]-2-isopropyl-3(2H)-pyridazinone]: 158 to 160 °C; for `CCn1nc(-c2sc(C(=O)NCc3ccccn3)nc2-c2ccccc2)ccc1=O` [Example 202, 5-(1-Ethyl-6-oxo-1,6-dihydro-3-pyridazinyl)-4-phenyl-N-(2-pyridinylmethyl)-1,3-thiazole-2-carboxamide]: 169 to 170.5 °C.
In turn, `CC(C)n1nc(-c2sc(C(=O)NC3CC3)nc2-c2ccc(F)cc2)ccc1=O` [Example 198, N-cyclopropyl-4-(4-fluorophenyl)-5-(1-isopropyl-6-oxo-1,6-dihydro-3-pyridazinyl)-1,3-thiazole-2-carboxamide] came in with a melting point of 157 to 158 °C.
The same measure for `CC(C)NCc1ccc(C(=O)Nc2nc(-c3ccccc3)c(-c3ccc(=O)n(C(C)C)n3)s2)cc1` [Example 152, 4-[(Isopropylamino)methyl]-N-[5-(1-isopropyl-6-oxo-1,6-dihydro-3-pyridazinyl)-4-phenyl-1,3-thiazol-2-yl]benzamide]: 139 to 141 °C; for `Cc1cccc(NC(=O)N(C)c2nc(-c3ccccc3)c(-c3ccc(=O)n(C(C)C)n3)s2)c1` [Example 99, N-[5-(1-isopropyl-6-oxo-1,6-dihydro-3-pyridazinyl)-4-phenyl-1,3-thiazol-2-yl]-N-methyl-N′-(3-methylphenyl)urea]: 157 to 158 °C; for `CC(=O)Nc1nc(-c2ccccc2)c(-c2ccc(=O)n(C(C)C)n2)s1` [Example 6, N-[5-(1-isopropyl-6-oxo-1,6-dihydro-3-pyridazinyl)-4-phenyl-1,3-thiazol-2-yl]-acetamide]: 202 to 204 °C.
The compound `CCCn1nc(-c2sc(C(N)=O)nc2-c2ccccc2)ccc1=O` [Example 167, 5-(6-oxo-1-propyl-1,6-dihydro-3-pyridazinyl)-4-phenyl-1,3-thiazole-2-carboxamide] returned a melting point of 201 to 202 °C.
As to `CC(C)n1nc(-c2sc(NC(=O)c3ccccc3)nc2-c2ccccc2)ccc1=O` [Example 2, N-[5-(1-isopropyl-6-oxo-1,6-dihydro-3-pyridazinyl)-4-phenyl-1,3-thiazol-2-yl]-benzamide], the melting point lay within 126 to 129 °C.
`CC(C)Nc1nc(-c2ccccc2)c(-c2ccc(=O)n(C(C)C)n2)s1` [Example 64, 2-Isopropyl-6-[2-(isopropylamino)-4-phenyl-1,3-thiazol-5-yl]-3(2H)-pyridazinone]: the melting point was 138 to 139 °C.
For `CCn1nc(-c2sc(C(N)=O)nc2-c2ccccc2)ccc1=O` [Example 160, 5-(1-Ethyl-6-oxo-1,6-dihydro-3-pyridazinyl)-4-phenyl-1,3-thiazole-2-carboxamide], the melting point was 231 to 232.5 °C.
The value for `CC(C)n1nc(-c2sc(NC(=O)c3ccc(CN(C)C)cc3)nc2-c2ccccc2)ccc1=O` [Example 28, 4-[(Dimethylamino)methyl]-N-[5-(1-isopropyl-6-oxo-1,6-dihydro-3-pyridazinyl)-4-phenyl-1,3-thiazol-2-yl]benzamide] was 246 to 248 °C.
